Measurements as given in patent US20250049774A1, “Crystalline Forms of Apalutamide” (Apotex Inc., priority 2021, published 2025).

Tests used:
[1] = Intrinsic dissolution rate (IDR), Wood's apparatus; assay type: physicochemical; conditions: 900 ml distilled water, 37° C., 50 rpm; approx. 200 mg compressed at 1.5 metric tons for 1 minute
Procedure: Intrinsic dissolution rate (IDR) measurements were performed using a Wood's apparatus. Samples were prepared by compressing an amount (approximately 200 mg) of sample at 1.5 metric tons for 1 minute. A dissolution medium consisting of 900 ml distilled water maintained at 37° C., and rotation speed of 50 rpm, was used for each experiment.

[2] = drug substance, as described in CHMP Assessment Report; cited from earlier work
[3] = drug substance, as described in CHMP Assessment Report; cited from earlier work; remark: listed apart in the source

Row | Compound | Intrinsic Dissolution Rate [1] [mg min^−1 cm^−2] | permeability [2] | Biopharmaceutics Classification System (BCS) class [3] | aqueous solubility [3]
1 | CNC(=O)c1ccc(N2C(=S)N(c3cnc(C#N)c(C(F)(F)F)c3)C(=O)C23CCC3)cc1F [Apalutamide Amorphous Form] | 0.0085 |  |  | 
2 | CNC(=O)c1ccc(N2C(=S)N(c3cnc(C#N)c(C(F)(F)F)c3)C(=O)C23CCC3)cc1F [Apalutamide Form B] | 0.0065 |  |  | 
3 | CNC(=O)c1ccc(N2C(=S)N(c3cnc(C#N)c(C(F)(F)F)c3)C(=O)C23CCC3)cc1F [apalutamide, (4-[7-(6-cyano-5-trifluoromethylpyridin-3-yl)-8-oxo-6-thioxo-5,7-diazaspiro[3.4]oct-5-yl]-2-fluoro-N-methylbenzamide)] |  | high | Class II | low, pH-independent
